Patent EP0318860B1, “Substituted alkylamine derivatives” (BANYU PHARMACEUTICAL CO., LTD., priority 1987, dated 1989)
Counter-ions that a name gives are not always drawn.

test system: cholesterol biosynthesis in the cultured Hep-G2 cells; test: Inhibitory activity on cholesterol biosynthesis in cultured cells ([14C] acetate incorporation); assay type: cell-based; settings: HepG2; Human hepatoma (Hep-G2) cells, [14C] sodium acetate, 6 hours; read-out: 50% inhibitory concentration (IC₅₀)
Experimental: Human hepatoma (Hep-G2) cells were cultured in 10 cm² dishes until they formed a monolayer. One milliliter of the culture medium was replaced, and 1 µCi of [¹⁴C] sodium acetate and 1 microliter of a dimethyl sulfoxide solution of a test drug were added, and the cells were cultured at 37 °C in air containing 5 % of carbon dioxide for 6 hours.
After the cultivation, the medium was aspirated, and the cells were cooled with ice, and washed with Dulbecco's phosphate buffered saline solution. The resulting cells were scraped by a rubber policeman, and collected by centrifugation. The cells collected were dissolved in 400 microliters of 0.3N sodium hydroxide. A 200 microliters aliquot of the solution was used for extraction, and the remainder, for protein determination.
To 200 microliters of the extracted cells, 15 % ethanolic potassium hydroxide was added, and saponification was carried out at 75 °C for 1 hour. Water (1 ml) was then added, and the mixture was extracted with 2 ml of petroleum ether twice to remove non-saponified materials. The petroleum ether extracts were washed with 1 ml of water, and evaporated under a nitrogen stream. The residue was spotted on a pre-coated silica gel TLC plate using a small amount of chloroform, and developed with hexane/ethyl ether/acetic acid (85:15:4). Cholesterol and squalene portions on the TLC were detected with iodine, and the corresponding TLC portions were cut out. The TLC strips were immersed in a toluene-type scintillator, and radioactivity was counted by a liquid scintillation counter. The results were corrected by the amount of proteins measured by the method described in J. Biol. Chem., vol. 193, page 265, 1951. The 50 % inhibitory concentration (IC₅₀ value) of the compound of the invention on cholesterol biosynthesis in the cultured Hep-G2 cells was calculated.

SMILES | IC50 [µM]
CCN(C/C=C/C#CC(C)(C)C)Cc1cccc(OCc2ccccc2)c1 [Compound 36, (E)-N-(6,6-dimethyl-2-hepten-4-ynyl)-N-ethyl-3-benzyloxybenzylamine hydrochloride] | 0.064

target: T1, rat squalene epoxidase (Rattus norvegicus, UniProt P52020); test: Squalene epoxidase inhibiting activity (3H-squalene to squalene-2,3-epoxide, solubilized liver microsome fraction); assay type: biochemical; settings: 8 µM 3H-squalene, 37 °C, 30 minutes, read-out: 50 % inhibitory concentration (IC50)
T1 construct: Livers were extracted and homogenized; from tissue; host or cells: liver of SD-strain female rats; microsomes solubilized with 2 % Triton X-100, 105000 x g supernatant
Experimental: The rat squalene epoxidase was prepared by the method described in J. Biol. Chem., vol.
SD-strain female rats were killed by exsanguination. Livers were extracted and homogenized with in the presence of 2 volumes of 0.1M Tris-HCl buffer (pH 7.5). The homogenate was centrifuged at 9750 Xg for 10 minutes. The supernatant fraction was further centrifuged at 105000 Xg for 1 hour. The sediment was washed with 0.1M Tris-HCl buffer (pH 7.5), and then centrifuged at 105000 Xg for 1 hour. The microsomes obtained were suspended in 0.1M Tris-HCl buffer (pH 7.5) so that the amount of proteins was 40 mg/ml, and under ice cooling, the suspension was stirred in the presence of 2 % Triton X-100 to solubilize the enzyme. After the solubilization, the solution was diluted to a Triton X-100 concentration of 0.5 % with 1 mM EDTA and 1 mM dithiothreitol, and centrifuged at 105000 Xg for 1 hour. The resulting supernatant fraction was used in the following test as a squalene epoxidase fraction.
The squalene epoxidase activity was assayed in accordance with the method described in J. Biol. Chem., vol.
Three microliters of a dimethyl sulfoxide solution of a test drug was added to a solution composed of 0.2 ml of the squalene epoxidase fraction prepared in (1) [proteins 0.4 mg, 0.5 % Triton X-100, […] Tris-HCl buffer (pH 7.5)], 100 µM FAD, 1 mM NADPH, 1 mM EDTA and 8 µM ³H-squalene-Tween 80 emulsion to adjust the total amount of the solution to 0.3 ml. The solution was incubated at 37 °C for 30 minutes with shaking. Then, 0.3 ml of a 10 % methanolic potassium hydroxide was added to stop the reaction, and the reaction mixture was left to stand at room temperature for 1 hour. The non-saponified material was extracted with petroleum ether, and the solvent was evaporated under a nitrogen stream. […] The position of the resulting ³H-squalene-2,3-epoxide on TLC was determined using ergosterol acetate as a marker, and the ³H-squalene-2,3-epoxide portion on the TLC was cut off. The TLC strip was immersed in a toluene-type scintillator, and measured by a liquid scintillation counter.

T1 sequence (P52020 whole entry): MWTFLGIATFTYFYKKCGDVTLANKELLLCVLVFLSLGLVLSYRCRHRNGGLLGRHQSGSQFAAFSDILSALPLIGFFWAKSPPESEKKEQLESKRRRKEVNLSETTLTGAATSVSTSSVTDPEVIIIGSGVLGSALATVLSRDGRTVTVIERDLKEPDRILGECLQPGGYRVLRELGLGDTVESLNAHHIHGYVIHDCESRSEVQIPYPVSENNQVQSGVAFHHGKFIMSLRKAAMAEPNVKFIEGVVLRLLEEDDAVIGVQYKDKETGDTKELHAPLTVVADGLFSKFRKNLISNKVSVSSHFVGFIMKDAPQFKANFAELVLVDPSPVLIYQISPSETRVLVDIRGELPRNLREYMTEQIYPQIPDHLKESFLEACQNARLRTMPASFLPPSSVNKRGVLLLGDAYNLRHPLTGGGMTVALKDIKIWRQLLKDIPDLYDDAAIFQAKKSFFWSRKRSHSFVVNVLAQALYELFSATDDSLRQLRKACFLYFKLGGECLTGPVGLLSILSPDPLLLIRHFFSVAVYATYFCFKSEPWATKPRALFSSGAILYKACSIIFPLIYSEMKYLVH

SMILES | IC50 [µM]
CCN(C/C=C/C#CC(C)(C)C)Cc1cccc(OCc2ccccc2)c1 [Compound 36, (E)-N-(6,6-dimethyl-2-hepten-4-ynyl)-N-ethyl-3-benzyloxybenzylamine hydrochloride] | 0.3
CN(C/C=C/C#CC(C)(C)C)Cc1cccc(OCc2cccc(-c3ncco3)c2)c1 [Compound 76, (E)-N-(6,6-dimethyl-2-hepten-4-ynyl)-N-methyl-3-[3-(2-oxazolyl)benzyloxy]benzylamine] | 1.2
CN(C/C=C/C#CC(C)(C)C)Cc1cccc(OCc2cccc(-c3nccs3)c2)c1 [Compound 77, (E)-N-(6,6-dimethyl-2-hepten-4-ynyl)-N-methyl-3-[3-(2-thiazolyl)benzyloxy]benzylamine] | 1.2
CN(C/C=C/C#CC(C)(C)C)Cc1cccc(OCc2cccc(-n3cccc3)c2)c1 [Compound 81, (E)-N-(6,6-dimethyl-2-hepten-4-ynyl)-N-methyl-3-[3-(1-pyrrolyl)benzyloxy]benzylamine] | 0.014
Cc1ccoc1COc1cccc(CN(C)C/C=C/C#CC(C)(C)C)c1 [Compound 82, (E)-N-(6,6-dimethyl-2-hepten-4-ynyl)-N-methyl-[(3-methyl-2-furyl)methyloxy]benzylamine] | 0.87
Cc1occc1COc1cccc(CN(C)C/C=C/C#CC(C)(C)C)c1 [Compound 83, (E)-N-(6,6-dimethyl-2-hepten-4-ynyl)-N-methyl-3-[(2-methyl-3-furyl)methyloxy]benzylamine] | 1.9
CN(C/C=C/C#CC(C)(C)C)Cc1cccc(OCc2cccs2)c1 [Compound 86, (E)-N-(6,6-dimethyl-2-hepten-4-ynyl)-N-methyl-3-(2-thienylmethyloxy)benzylamine] | 3.3
CN(C/C=C/C#CC(C)(C)C)Cc1cccc(OCc2cccc3cccnc23)c1 [Compound 87, (E)-N-(6,6-dimethyl-2-hepten-4-ynyl)-N-methyl-3-(8-quinolylmethyloxy)benzylamine hydrochloride] | 3.5
C/C=C(\C)COc1cccc(CN(C)C/C=C/C#CC(C)(C)C)c1 [Compound 90, N-[(E)-6,6-dimethyl-2-hepten-4-ynyl]-N-methyl-3-[(E)-2-methyl-2-butenyloxy]benzylamine hydrochloride] | 5.5
CC(C)=C(C)COc1cccc(CN(C)C/C=C/C#CC(C)(C)C)c1 [Compound 92, (E)-N-(6,6-dimethyl-2-hepten-4-ynyl)-N-methyl-3-(2,3-dimethyl-2-butenyloxy)benzylamine] | 3.3
CN(C/C=C/C#CC(C)(C)C)Cc1cccc(OCc2cccc(C=O)c2)c1 [Compound 95, (E)-N-(6,6-dimethyl-2-hepten-4-ynyl)-N-methyl-3-(3-formylbenzyloxy)benzylamine] | 6.8
CN(C/C=C/C#CC(C)(C)C)Cc1cccc(OCc2cccc(CO)c2)c1 [Compound 96, (E)-N-(6,6-dimethyl-2-hepten-4-ynyl)-N-methyl-3-(3-hydroxymethylbenzyloxy)benzylamine] | 0.84
Cc1ccccc1/C=C/c1cccc(CN(C)C/C=C/C#CC(C)(C)C)c1 [Compound 99, N-[(E)-6,6-dimethyl-2-hepten-4-ynyl]-N-methyl-3-[(E)-o-methylstyryl]benzylamine] | 2
CN(C/C=C/C#CC(C)(C)C)Cc1cccc(/C=C/c2cccc3ccccc23)c1 [Compound 100, N-[(E)-6,6-dimethyl-2-hepten-4-ynyl]-N-methyl-3-[(E)-2-(1-naphthylvinyl)]benzylamine] | 0.12
CN(C/C=C/C#CC(C)(C)C)Cc1cccc(C#Cc2ccccc2)c1 [Compound 101, (E)-N-(6,6-dimethyl-2-hepten-4-ynyl)-N-methyl-3-(2-phenylethynyl)benzylamine] | 2.1
CN(C/C=C/C#CC(C)(C)C)Cc1cccc(NCc2ccccc2)c1 [Compound 102, (E)-N-(6,6-dimethyl-2-hepten-4-ynyl)-N-methyl-3-benzylaminobenzylamine] | 2.1
CN(C/C=C/C#CC(C)(C)C)Cc1cccc(CNc2ccccc2)c1 [Compound 104, (E)-N-[6,6-dimethyl-2-hepten-4-ynyl]-N-methyl-3-anilinomethylbenzylamine hydrochloride] | 7.7
CN(C/C=C/C#CC(C)(C)C)Cc1cccc(/C=C/c2ccccn2)c1 [Compound 108, (E)-N-(6,6-dimethyl-2-hepten-4-ynyl)-N-methyl-3-[(E)-2-(2-pyridyl)vinyl]benzylamine] | 0.45
Cc1ccccc1COc1ccnc(CN(C)C/C=C/C#CC(C)(C)C)c1 [Compound 112, (E)-N-(6,6-dimethyl-2-hepten-4-ynyl)-N-methyl-4-(2-methylbenzyloxy)-2-pyridylmethylamine] | 0.69
CN(C/C=C/C#CC(C)(C)C)Cc1ccc(/C=C/c2ccccc2)o1 [Compound 115, N-[(E)-6,6-dimethyl-2-hepten-4-ynyl]-N-methyl-5-[(E)-styryl]furfurylamine] | 0.27
CN(C/C=C/C#CC(C)(C)C)Cc1csc(/C=C/c2ccccc2)n1 [Compound 117, N-[(E)-6,6-dimethyl-2-hepten-4-ynyl]-N-methyl-2-[(E)-styryl]-4-thiazolylmethylamine] | 0.52
CCN(C/C=C/C#CC(C)(C)C)Cc1cccc(OCc2cccc(-n3cccc3)c2)c1 [Compound 119, (E)-N-(6,6-dimethyl-2-hepten-4-ynyl)-N-ethyl-3-[3-(1-pyrrolyl)benzyloxy]benzylamine] | 0.0071
CCN(C/C=C/C#CC(C)(C)C)Cc1cccc(OCc2cccc(-c3cnco3)c2)c1 [Compound 120, (E)-N-(6,6-dimethyl-2-hepten-4-ynyl)-N-ethyl-3-[3-(5-oxazolyl)benzyloxy]benzylamine] | 0.0027
CCN(C/C=C/C#CC(C)(C)C)Cc1cccc(OCc2cccc(-c3cncs3)c2)c1 [Compound 121, (E)-N-(6,6-dimethyl-2-hepten-4-ynyl)-N-ethyl-3-[3-(5-thiazolyl)benzyloxy]benzylamine] | 0.026
CCCN(C/C=C/C#CC(C)(C)C)Cc1cccc(OCc2cccc(-n3cccc3)c2)c1 [Compound 122, (E)-N-(6,6-dimethyl-2-hepten-4-ynyl)-N-propyl-3-[3-(1-pyrrolyl)benzyloxy]benzylamine] | 0.013
CCCN(C/C=C/C#CC(C)(C)C)Cc1cccc(OCc2cccc(-c3cnco3)c2)c1 [Compound 123, (E)-N-(6,6-dimethyl-2-hepten-4-ynyl)-N-propyl-3-[3-(5-oxazolyl)benzyloxy]benzylamine] | 0.034
COC(C)(C)C#C/C=C/CN(C)Cc1cccc(OCc2ccccc2)c1 [Compound 126, (E)-N-(6-methoxy-6-methyl-2-hepten-4-ynyl)-N-methyl-3-benzyloxybenzylamine] | 2.2
Cc1ccccc1COc1cccc(CN(C)C/C=C/C#CC2(C)CC2)c1 [Compound 131, (E)-N-methyl-N-[5-(1-methylcyclopropyl)-2-penten-4-ynyl]-3-(2-methylbenzyloxy)benzylamine] | 1
Cc1ccccc1COc1cccc(CN(C)C/C=C/C=C/C(C)(C)C)c1 [Compound 132, (E),(E)-N-(6,6-dimethyl-2,4-heptadienyl)-N-methyl-3-(2-methylbenzyloxy)benzylamine] | 5.4
CN(C/C=C/c1ccccc1)Cc1cccc2ccccc12 [naftifine, reference compound] | > 100
